Experimental data from patent US10988523B2, “Modified lipidated Relaxin B chain peptides and their therapeutic use” (Sanofi, priority 2018, dated 2021).
Read-outs that look alike come from different tables or passages of the source. Marks after values point to notes of the source that are not given here. *1 amine or outer side, *2 acyl side, *3 side chain or, on linkers, in order; H or OH if unused. Where a SMILES comes first, the peptide text is derived from it. Side-chain parts run from the residue outwards. [ ]: non-standard residue; d: D form. The star is where a group is joined. γGlu = O=C(O)[C@H](CCC(=O)[*:2])N[*:1]; Palmitoyl = CCCCCCCCCCCCCCCC(=O)*; αMeK = C[C@](N)(CCCCN)C(=O)O; Nle = CCCC[C@H](N)C(=O)O; AEEA = NCCOCCOCC(=O)O; Aib = CC(C)(N)C(=O)O

How the values were obtained:
[1] = Stability testing of peptides in rat plasma or blood; type: in vitro ADME; conditions: 37° C.; for Rat plasma stability % remaining T = 0: rat plasma or blood, T = 0 (reference); for remaining at 1 h, 5 µM / remaining at 4 h, 5 µM: rat plasma; for remaining at 1 h, 5 µM: read-out: Rat plasma stability % remaining 1 h; for remaining at 4 h, 5 µM: read-out: Rat plasma stability % remaining 4 h
Method: (§1) Prior to the testing of stability in plasma (or blood) of a peptide batch, its purity (HPLC-UV) was determined.
(§2) Rat and Human plasma: anti-coagulant sodium or lithium heparin.
(§3) Rat and Human blood: anti-coagulant sodium or lithium heparin. • Stock solution: • 100 μM solution of study compound in 50 mM Phosphate buffer pH 7.4. • 950 μL plasma (or blood) was pre-incubated for 5 min at 37° C. 50 μL of compound stock solution was added. Final compound concentration=5 μM. Vortex and transfer 1504, plasma (or blood) into an Eppendorf for each time point. The time points […] were carried out in duplicate for each species.
(§4) After incubation 150 μL, plasma (or blood) was extracted with 600 μL, Acetonitrile containing with 1% TFA. Then, vortexed and centrifuged 10 min at 14600 rpm. 200 μL supernatant was dried under N2. The sample was reconstituted in 200 μL of H2O/CH3CN 98/2+0.1% FA+50 ng/ml Labetalol and analyzed using the analytical system used in solubility and stability studies.
(§5) For determination of the amount of the remaining peptide, the peak areas of the target compound at t0 and each time point […] were compared, resulting in “% remaining peptide”, following the equation: % remaining peptide=[(peak area peptide time)×100]/peak area peptide t0. The stability is expressed as “% remaining peptide”.

[2] = Stability testing of peptides in human plasma or blood; type: in vitro ADME; conditions: 37° C.; for Human Plasma stability % remaining T = 0: human plasma or blood, T = 0 (reference); for remaining at 1 h, 5 µM / remaining at 4 h, 5 µM: human plasma; for remaining at 1 h, 5 µM: read-out: Human Plasma stability % remaining 1 h; for remaining at 4 h, 5 µM: read-out: Human Plasma stability % remaining 4 h
Method: as §1, §2, §3, §4, §5

[3] = Solubility testing of peptides in buffer; type: physicochemical
Method: Prior to the testing of solubility of a peptide batch, its purity (HPLC-UV) was determined.
Acetate Buffer 50 mM pH4.5: 0.75 g […], 3H2O (Sigma 57545)+0.35 ml CH3CO2H 100% solution dissolved in Millipore water, adjusted to pH with diluted (1:1) CH3CO2H and diluted to 250 ml with Millipore water.
In a 4 ml Ependorph vial, an accurately weighed sample of compound was diluted in study media to obtain target concentration of 2, 6 or 10 mg/ml of pure compound. The sample vials were shacked (rock 'roll shaker) for ˜19 h. 3004, Aliquots ( ) were filtered through a Millipore “Solvinert” plate (0.45 μm—PTFE hydrophilic).
pH was measured with a micro electrode
Waters Acquity UPLC System with DAD detector
Column: Waters Peptide Column CSH C18 (130 Å; 1.7 μm; 50*2.1 mm)
Column temperature: 60° C.
Full loop (about 5 μL)—overfill factor 5
Weak et Strong wash: H2O/ACN (75/25; V/V); Seal wash: H2O/IsOH (95/5; V/V). Mobile phase:
Solvent A: 0.05% TFA in H2O; Solvent B: 0.035% TFA in CH3CN
Gradient: from 0 to 12 min B=2% to 60%, from 12 to 14 min B=60% to 100%. Column washing 100% B 1 min, column equilibration 2% B 2.5 min.
UV detector: wavelength: 220 nm.

[4] = Pharmacokinetic (PK) determination after i.v. or s.c. administration to rats; type: in vivo, Sprague Dawley rats; conditions: Rat PK
In short: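 Non-compartmental analysis of plasma LC/MS data (protein precipitation, BLQ taken as zero) gave T½, C0 (i.v.), Cmax/Tmax (s.c.) and F% from dose-corrected AUCs. Dosing: 3 mg/kg s.c. or 1 mg/kg i.v. in PBS to Sprague Dawley rats, purity- and salt-corrected.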

RXFP1 = target: T1, RXFP1 (Homo sapiens, UniProt Q9HBX9); test: OVCAR5 cAMP assay (HTRF), RXFP1 agonist activity; type: cell-based; conditions: for Emax: OVCAR-5; for EC50: OVCAR5 cells expressing endogenous RXFP1, cAMP readout, 30 min, 1 mM IBMX, read-out: EC50 cAMP assay in OVCAR 5 cells
T1 construct: OVCAR5 cells expressing endogenous RXFP1; endogenous in cells; host or cells: OVCAR5 cells
T1 sequence (Q9HBX9 1-757): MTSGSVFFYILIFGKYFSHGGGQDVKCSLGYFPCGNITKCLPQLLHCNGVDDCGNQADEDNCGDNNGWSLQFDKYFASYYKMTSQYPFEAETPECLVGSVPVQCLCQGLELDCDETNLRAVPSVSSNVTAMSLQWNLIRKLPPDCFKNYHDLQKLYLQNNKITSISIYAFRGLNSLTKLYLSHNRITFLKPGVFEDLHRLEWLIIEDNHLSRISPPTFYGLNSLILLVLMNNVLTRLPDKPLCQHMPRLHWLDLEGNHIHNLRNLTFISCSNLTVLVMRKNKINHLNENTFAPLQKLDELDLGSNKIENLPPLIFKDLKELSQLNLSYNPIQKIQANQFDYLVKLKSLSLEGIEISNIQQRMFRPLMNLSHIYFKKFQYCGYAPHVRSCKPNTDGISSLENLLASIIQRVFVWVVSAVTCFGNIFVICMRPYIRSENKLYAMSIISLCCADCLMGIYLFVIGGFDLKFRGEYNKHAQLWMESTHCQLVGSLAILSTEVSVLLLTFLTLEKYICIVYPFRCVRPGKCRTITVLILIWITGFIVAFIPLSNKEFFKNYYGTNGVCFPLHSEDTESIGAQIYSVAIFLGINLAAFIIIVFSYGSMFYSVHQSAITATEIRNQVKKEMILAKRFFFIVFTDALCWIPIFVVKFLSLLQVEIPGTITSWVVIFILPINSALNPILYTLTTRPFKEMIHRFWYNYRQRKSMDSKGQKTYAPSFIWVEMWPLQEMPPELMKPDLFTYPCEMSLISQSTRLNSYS
In short: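 cAMP accumulation readout: after 1 mM IBMX for 40 min, endogenous-RXFP1 OVCAR5 cells got rising peptide concentrations without FCS, 30 min, 37° C, then lysis with HTRF cAMP reagents. Nonlinear regression gave EC50; Emax expressed relative to H2-relaxin maximum, same occasion.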

[5] = acetate buffer 50 mM pH 4.5, target solubility 2.0 mg/ml, read-out: Solubility Acetate buffer pH 4.5
[6] = phosphate buffer 50 mM pH 7.4, target solubility 2.0 mg/ml, read-out: Solubility phosphate buffer pH 7.4
[7] = maximal cAMP relative to H2-relaxin maximal cAMP x 100, read-out: Emax cAMP assay in OVCAR 5 cells

Molecule | Rat plasma stability % remaining T = 0 ([1]; 5 μM) | Human Plasma stability % remaining T = 0 ([2]; 5 μM) | remaining at 1 h, 5 µM ([1]; 1 h) | remaining at 4 h, 5 µM ([1]; 4 h) | remaining at 1 h, 5 µM ([2]; 1 h) | remaining at 4 h, 5 µM ([2]; 4 h) | solubility [3, 5] | solubility [3, 6] | EC50 (RXFP1) | Emax (RXFP1; [7]) | other results
CCCCCCCCCCCCCCCC(=O)N[C@@H](CCC(=O)N[C@@H](CCC(=O)N[C@@H](CCC(=O)N[C@@H](CCC(=O)NCCOCCOCC(=O)NCCOCCOCC(=O)NCCOCCOCC(=O)NCCOCCOCC(=O)NCCCC[C@H](NC(=O)[C@H](CCCCNC(C)=O)NC(=O)[C@H](C)NC(=O)[C@H](CCCNC(=N)N)NC(=O)[C@](C)(CCCCN)NC(=O)[C@H](CO)NC(=O)[C@H](Cc1ccccc1)NC(=O)[C@@H](NC(=O)[C@H](CO)NC(=O)[C@H](CCCC)NC(=O)CNC(=O)[C@H](CCC(=O)O)NC(=O)C(C)(C)NC(=O)C(C)(C)NC(=O)[C@@H](NC(=O)[C@H](CCCCNC(C)=O)NC(=O)[C@H](C)NC(=O)[C@H](CCCNC(=N)N)NC(=O)[C@@H](NC(=O)[C@H](CCCCN)NC(=O)[C@H](CCC(=O)O)NC(=O)[C@H](CCCNC(=N)N)NC(=O)CNC(=O)[C@H](CCC(=O)O)NC(=O)[C@H](CC(C)C)NC(C)=O)C(C)C)[C@@H](C)CC)[C@@H](C)O)C(N)=O)C(=O)O)C(=O)O)C(=O)O)C(=O)O [compound 154] (Ac-LEGREKVRAK(Ac)I[Aib][Aib]EG[Nle]STFS[αMeK]RAK(Ac)K([AEEA-AEEA-AEEA-AEEA-γGlu-γGlu-γGlu-γGlu-Palmitoyl])-NH2) | 100% | 100% | – | – | – | – | – | – | – | – | Rat stability in blood % remaining 1 h ([1]; rat blood, 1 h, 5 μM): 99** %; Rat stability in blood % remaining 4 h ([1]; rat blood, 4 h, 5 μM): 95** %; Human stability in blood % remaining 1 h ([2]; human blood, 1 h, 5 μM): 91** %; Human stability in blood % remaining 4 h ([2]; human blood, 4 h, 5 μM): 96** %; Solubility Acetate buffer pH 4.5 ([3]; acetate buffer 50 mM pH 4.5, target solubility 10.0 mg/ml): >10 mg/ml****; Solubility phosphate buffer pH 7.4 ([3]; phosphate buffer 50 mM pH 7.4, target solubility 10.0 mg/ml): >10 mg/ml****; T½ ([4]; 1 mg/kg i.v.): 5.00 h; C0 ([4]; 1 mg/kg i.v., extrapolated plasma concentration at t=0, read-out: C0): 4.52 µM; Cmax ([4]; 3 mg/kg s.c.): 1890 nM; Tmax (-h) ([4]; 3 mg/kg s.c.): 8.0 h; F % ([4]; 3 mg/kg s.c. vs 1 mg/kg i.v., dose-corrected AUC ratio): 72%; Emax (RXFP1; maximal cAMP relative to H2-relaxin maximum (100%), read-out: EMax, OVCAR 5 cells (cAMP)): 92%
Ac-VIKLSGRELVRAQIAISGMSTWSKKKK-NH2 [KKKK(AcB7-29 C11.23S), reference compound] | 100% | 100% | 23% | 14% | 41% | 31% | 2300 µg/mL | 177 µg/mL | 206 nM | 84% | –
Ac-VIKLSGRELVRAQIAISGMSTWSKRSL-NH2 [AcB7-33 C11.23S, reference compound] | 100% | 100% | 16% | 2% | 67% | 18% | 1540 µg/mL | < 1 µg/mL | – | 70% | –
H-VIKLSGRELVRAQIAISGMSTWSKRSL-NH2 [B7-33 C11.23S, reference compound] | 100% | 100% | 15% | 2% | 18% | 3% | – | – | 1640 nM | 90% | Solubility Acetate buffer pH 4.5 ([3]; acetate buffer 50 mM pH 4.5, target solubility 2.0 mg/ml): 1.9 mg/ml; Solubility phosphate buffer pH 7.4 ([3]; phosphate buffer 50 mM pH 7.4, target solubility 2.0 mg/ml): 0.014 mg/ml
